The compounds below were run against T1, RORc (Homo sapiens, UniProt P51449) (assay: In Vitro RORc Ligand Binding Assay). Settings: IC50 values for RORc.
T1 construct: host or cells: E. coli
T1 sequence (P51449 269-508 limits assumed): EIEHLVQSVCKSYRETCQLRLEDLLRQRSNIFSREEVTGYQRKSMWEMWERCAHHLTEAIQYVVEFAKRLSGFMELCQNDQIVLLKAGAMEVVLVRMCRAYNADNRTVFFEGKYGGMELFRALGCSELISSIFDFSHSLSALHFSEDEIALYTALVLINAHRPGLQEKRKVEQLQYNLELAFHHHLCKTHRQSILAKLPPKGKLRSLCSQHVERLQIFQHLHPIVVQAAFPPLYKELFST
Experimental: This assay was used to determine a compound's potency in inhibiting activity of RORc by determining, Kiapp, IC50, or percent inhibition values.
On day of the assay, 100 uL of 0.05% CHAPS (in deionized H2O) was added to all wells of the GFB Unifilter plate and allowed soak for 1 h. A wash buffer of 50 mM HEPES (pH 7.4), 150 mM NaCl, and 5 mM MgCl2 was prepared to wash the filter plate. To prepare an assay buffer, BSA was added to the wash buffer to reach 0.01% and DTT was added to reach 1 mM.
The 20× compound stocks were diluted in DMSO with Assay Buffer 4-fold to reach 5× the final test concentration in 25% DMSO (10 uL compound+30 uL Assay Buffer). Solutions were mixed by aspiration several times with a pipette set on 50 uL volume.
For two point screening, 10 mM stock compound solutions were diluted in DMSO to obtain 200 uM (20× the high test concentration) and then diluted 10-fold further to reach 20 uM (20× the low test concentration). The 20× stocks were diluted 4-fold with Assay Buffer (10 uL compound+30 uL Assay Buffer) to reach 5× the test concentrations (50 uM and 5 uM) and 10 uL were added to two assay plates for the duplicate wells. With each concentration tested on 2 plates, each set of 80 compounds used 4 assay plates (1 uM and 10 uM, with n=2).
For 25-hydroxycholesterol in 25% DMSO/75% Assay Buffer; 10 uL per well was used for NSB samples. Wells for Total Binding and No Receptor sample determination contained 10 uL of 25% DMSO/75% Assay Buffer per well.
Add 20 uL to all wells to reach 6 nM final concentration in the assay.
Stock receptor solution was diluted in assay buffer to obtain 1.5 ug/mL in Assay Buffer. 20 uL was added to all wells. For No Receptor samples, 20 uL Assay Buffer was substituted for receptor solution.
Assay plates were 96-well polypropylene V-bottom plates. […] 10 uL of 25% DMSO/75% Assay Buffer was added to Total Binding or No Receptor wells. 10 uL of 5 uM 25-hydroxycholesterol in 25% DMSO/75% Assay Buffer was added to NSB wells. […] 20 uL of 1.5 ug/mL RORc receptor was added to wells (or 40 uL Assay Buffer to No R wells). Following addition to the wells, the plates were incubated 3 h at 25° C.
Using a Packard Filtermate Harvester, the filter plate were washed 4 times following transfer of the incubated samples. Plates were dry-filtered completely (2 h at 50° C. or overnight at room temperature). 50 uL Microscint 0 was added to all wells and read on Topcount protocol Inverted.
Final concentrations were as follows: 50 mM HEPES buffer (pH 7.4); 150 mM NaCl; 1 mM DTT; 5 mM MgCl2; 0.01% BSA; 5% DMSO; 0.6 ug/mL RORc receptor; 6 nM 25-[^3H]hydroxycholesterol. For NSB wells, 1 uM 25-hydroxycholesterol was also present.

Structure (SMILES)	IC50 [nM]
C[C@H]1CC[C@H](c2ccccc2)S(=O)(=O)N1Cc1cc(F)c([C@]2(C(N)=O)C[C@@](C)(O)C2)cc1F [Compound 49, 1-[2,5-difluoro-4-[[(3S,6R)-3-methyl-1,1-dioxo-6-phenyl-thiazinan-2-yl]methyl]phenyl]-3-hydroxy-3-methyl-cyclobutanecarboxamide]	199
C[C@H]1CC[C@H](c2ccccc2)S(=O)(=O)N1Cc1cc(F)c(C2(C(=O)N[C@H]3C[C@H](O)C3)CCOCC2)cc1F [Compound 37, 4-[2,5-difluoro-4-[[(3S,6R)-3-methyl-1,1-dioxo-6-phenyl-thiazinan-2-yl]methyl]phenyl]-N-(3-hydroxycyclobutyl) tetrahydropyran-4-carboxamide]	47.6
C[C@H](NC1=CC(=O)CCC1)c1cc(F)c(CN2[C@@H](C)CC[C@H](c3ccccc3)S2(=O)=O)cc1F [Compound 26, 3-[[(1S)-1-[2,5-difluoro-4-[[(3S,6R)-3-methyl-1,1-dioxo-6-phenyl-thiazinan-2-yl]methyl]phenyl]ethyl]amino] cyclohex-2-en-1-one]	131
C[C@@H](NC1=CC(=O)CCC1)c1cc(F)c(CN2[C@@H](C)CC[C@H](c3ccccc3)S2(=O)=O)cc1F [Compound 22, 3-[[(1R)-1-[2,5-difluoro-4-[[(3S,6R)-3-methyl-1,1-dioxo-6-phenyl-thiazinan-2-yl]methyl]phenyl]ethyl]amino] cylohex-2-en-1-one]	265
C[C@H]1CC[C@H](c2ccccc2)S(=O)(=O)N1Cc1cc(F)c([C@@H](OCC2CC2)C(N)=O)cc1F [Compound 18, (2R)-2-(cyclopropylmethoxy)-2-[2,5-difluoro-4-[[(3S,6R)-3-methyl-1,1-dioxo-6-phenyl-thiazinan-2-yl]methyl]phenyl]acetamide]	30.1
C[C@H]1CC[C@H](c2ccccc2)S(=O)(=O)N1Cc1cc(F)c([C@@H](CCC#N)C(N)=O)cc1F [Compound 17, (2R)-4-cyano-2-[2,5-difluoro-4-[[(3S,6R)-3-methyl-1,1-dioxo-6-phenyl-thiazinan-2-yl]methyl]phenyl]butanamide]	82.7
C[C@H]1CC[C@H](c2ccccc2)S(=O)(=O)N1Cc1cc(F)c([C@@]23C[C@@H]2COC3=O)cc1F [Compound 43, (1R,5S)-1-[2,5-difluoro-4-[[(3S,6R)-3-methyl-1,1-dioxo-6-phenyl-thiazinan-2-yl]methyl]phenyl]-3-oxabicyclo[3.1.0]hexan-2-one]	39.4
C[C@H]1CC[C@H](c2ccccc2)S(=O)(=O)N1Cc1ccc(C2(C(=O)NC3CC3)CCOCC2)cc1F [Compound 30, N-cyclopropyl-4-[3-fluoro-4-[[(3S,6R)-3-methyl-1,1-dioxo-6-phenyl-thiazinan-2-yl]methyl]phenyl]tetrahydropyran-4-carboxamide]	129
Cc1cc(C(=O)NC(C)c2cc(F)c(CN3[C@@H](C)CC[C@H](c4ccccc4)S3(=O)=O)cc2F)[nH]n1 (stereo in doubt) [Compound 56, N-[1-[2,5-difluoro-4-[[(3S,6R)-3-methyl-1,1-dioxo-6-phenyl-thiazinan-2-yl]methyl]phenyl]ethyl]-3-methyl-1H-pyrazole-5-carboxamide]	107
CC(NC(=O)c1nc(N)n[nH]1)c1cc(F)c(CN2[C@@H](C)CC[C@H](c3ccccc3)S2(=O)=O)cc1F (stereo in doubt) [Compound 71, 3-amino-N-[1-[2,5-difluoro-4-[[(3S,6R)-3-methyl-1,1-dioxo-6-phenyl-thiazinan-2-yl]methyl]phenyl]ethyl]-1H-1,2,4-triazole-5-carboxamide]	47.9
C[C@H]1CC[C@H](c2ccccc2)S(=O)(=O)N1Cc1cc(F)c([C@@H](OC2COC2)C(N)=O)cc1F [Compound 8, (2R)-2-[2,5-difluoro-4-[[(3S,6R)-3-methyl-1,1-dioxo-6-phenyl-thiazinan-2-yl]methyl]phenyl]-2-(oxetan-3-yloxy)acetamide]	31
Cc1nocc1C(=O)NC(C)c1cc(F)c(CN2[C@@H](C)CC[C@H](c3ccccc3)S2(=O)=O)cc1F (stereo in doubt) [Compound 60, N-[1-[2,5-difluoro-4-[[(3S,6R)-3-methyl-1,1-dioxo-6-phenyl-thiazinan-2-yl]methyl]phenyl]ethyl]-3-methyl-isoxazole-4-carboxamide]	54.5

These reach a lower IC50. Values come first.

IC50 [nM]	Structure (SMILES)
22	CC(NCc1cnoc1)c1cc(F)c(CN2[C@@H](C)CC[C@H](c3ccccc3)S2(=O)=O)cc1F (stereo partly drawn) [Compound 50, 1-[2,5-difluoro-4-[[(3S,6R)-3-methyl-1,1-dioxo-6-phenyl-thiazinan-2-yl]methyl]phenyl]-N-(isoxazol-4-ylmethyl)ethanamine]
21.7	C[C@H]1CC[C@H](c2ccccc2)S(=O)(=O)N1Cc1cc(F)c(C23CC(C)(C2)OC3=O)cc1F [Compound 27, 4-[2,5-difluoro-4-[[(3S,6R)-3-methyl-1,1-dioxo-6-phenyl-thiazinan-2-yl]methyl]phenyl]-1-methyl-2-oxabicyclo[2.1.1]hexan-3-one]
13.6	C[C@H]1CC[C@H](c2ccccc2)S(=O)(=O)N1Cc1ccc(C2(C(=O)NC3CC(O)C3)CCOCC2)cc1F (stereo partly drawn) [Compound 34, 4-[3-fluoro-4-[[(3S,6R)-3-methyl-1,1-dioxo-6-phenyl-thiazinan-2-yl]methyl]phenyl]-N-(3-hydroxycyclobutyl)tetrahydropyran-4-carboxamide]
9.3	Cc1nnc(C(=O)NC(C)c2cc(F)c(CN3[C@@H](C)CC[C@H](c4ccccc4)S3(=O)=O)cc2F)o1 (stereo in doubt) [Compound 73, N-[1-[2,5-difluoro-4-[[(3S,6R)-3-methyl-1,1-dioxo-6-phenyl-thiazinan-2-yl]methyl]phenyl]ethyl]-5-methyl-1,3,4-oxadiazole-2-carboxamide]
7.3	COc1cc(C(=O)NC(C)c2cc(F)c(CN3[C@@H](C)CC[C@H](c4ccccc4)S3(=O)=O)cc2F)on1 (stereo in doubt) [Compound 74, N-[1-[2,5-difluoro-4-[[(3S,6R)-3-methyl-1,1-dioxo-6-phenyl-thiazinan-2-yl]methyl]phenyl]ethyl]-3-methoxy-isoxazole-5-carboxamide]
6.5	C[C@H]1CC[C@H](c2ccccc2)S(=O)(=O)N1Cc1cc(F)c(C2=CC(=O)C2)cc1F [Compound 15, 3-[2,5-difluoro-4-[[(3S,6R)-3-methyl-1,1-dioxo-6-phenyl-thiazinan-2-yl]methyl]phenyl]cyclobut-2-en-1-one]
6.3	CC(NC(=O)c1cncs1)c1cc(F)c(CN2[C@@H](C)CC[C@H](c3ccccc3)S2(=O)=O)cc1F (stereo in doubt) [Compound 72, N-[1-[2,5-difluoro-4-[[(3S,6R)-3-methyl-1,1-dioxo-6-phenyl-thiazinan-2-yl]methyl]phenyl]ethyl]thiazole-5-carboxamide]
2.2	C=CCOC1(c2cc(F)c(CN3[C@@H](C)CC[C@H](c4ccccc4)S3(=O)=O)cc2F)CC2(COC2)C1 [Compound 14, (3S,6R)-2-[[4-(6-allyloxy-2-oxaspiro[3.3]heptan-6-yl)-2,5-difluoro-phenyl]methyl]-3-methyl-6-phenyl-thiazinane 1,1-dioxide]
2.1	CNC(=O)COC1(c2cc(F)c(CN3[C@@H](C)CC[C@H](c4ccccc4)S3(=O)=O)cc2F)CC2(COC2)C1 [Compound 13, 2-[[6-[2,5-difluoro-4-[[(3S,6R)-3-methyl-1,1-dioxo-6-phenyl-thiazinan-2-yl]methyl]phenyl]-2-oxaspiro[3.3]heptan-6-yl]oxy]-N-methyl-acetamide]

— patent US20180263996A1, “ARYL SULTAM DERIVATIVES AS RORc MODULATORS” (Genentech, Inc., priority 2015, published 2018)
